Reference: patent publication US20260035364A1, “BICYCLIC TETRAHYDROTHIAZEPINE DERIVATIVES” (Hoffmann-La Roche Inc., priority 2022, published 2026)

System: primary human T-cells
Test: IL2 secretion measurements in CD3-stimulated T-cells
Type: cell-based
Conditions: CD3 condition; for Emax / EC50: Homo sapiens, T-cell, 24 h; for Emax: read-out: Emax IL2 (% activation); for EC50: IL2 secretion after 24 hours, read-out: Tcell IL2 CD3 EC50
Method: As readouts for T-cell activation, IL2 secretion after 24 hours and proliferation after 5 days was measured. Increases in IL2 secretion and proliferation upon compound treatment were assessed as the % of the maximum of reference compound A1. WO 2016/139181 discloses reference compound A1 as example 70. As a counter screen and to make sure that no unwanted TCR-independent activation was triggered, PBS conditions were run for all compounds.
Expanded primary human T-cells were thawed and cultured in RPMI 1640 (Gibco, #61870-010)+5% human serum (HS, Sigma, #H3667)+1 mM Sodium Pyruvate (Gibco, #11360-039)+50 μM 2-mercaptoethanol (Gibco, #31350-010) and 1× Pen-Strep (Life Technologies, #15140122) medium at density of 2 Mio/ml for 3 hours in 5% CO2, 37° C. and 95% humidity. For coating of plates, […] or PBS++ with CD3 antibody (concentration depending on donor and determined by CD3 titrations) was added 100 μl/well to Poly-D Lysine coated 96-well plates. Plates were sealed and incubated at room temperature for 3 hours on a table-top rocking platform. After incubation, plates were washed once with PBS−− and filled with 40 μl/well culture medium only. Compounds were then added (see next section) to medium only plates. After 3 hours of culturing the T-cells, cells were filtered through a cell strainer (Miltenyi Biotech, #130-041-407), counted again and concentration was adjusted to 1.25 Mio/ml.
Cells were then seeded 80 μl/well to the 40 μl/well including dispensed compounds according to plate layout. By adding cells, compounds were further diluted 1:3, and resulting in 100k cells/120 µl/well. After 24 hours 40 μl of supernatant was collected carefully from the top while not disturbing the cells and transferred into a round bottom 96 well plate. Collected and frozen supernatant was used for detection of IL2 using the IL-2 Human ProQuantum Immunoassay Kit (Invitrogen) or using the Human IL-2 ELISA Kit (Thermo Fisher).
Compound Treatment Compounds were added in a 5 or 6 pt dose response with the Tecan D300e Digital Dispenser, all conditions 3 times more concentrated than the end-concentration, since cells are added afterwards (80p1 cells to 40p1 prepared medium with treatment). The DR was starting at 20 μM or 10 μM final top concentration and a dilution factor of 3.333. The positive control was the reference compound A1 that was added in a dose response as well, additionally to 3 wells of only 20 μM representing the positive stimulator control. All wells were normalized with DMSO to a final concentration of 0.6% (0.2% end-concentration).
The immunoassay is done following the manufacturer's manual (Invitrogen, #A35603).
Additional information: For the immunoassay, MicroAmp™ EnduraPlate™ Optical 384-Well plates are used. Frozen supernatant is thawed and centrifuged for 5 minutes at 1000×g, both steps at 4° C. After centrifugation, required sample amount is taken from the top, and in a separate LightCycler V-bottom plate (working plate) diluted with assay dilution buffer, dilution factor depending on the PBS or CD3 condition but at least 1:3. IL-2 standard and blanks are prepared in the same V-bottom plate, standard with a range of 0.0128-5000 pg/ml (extended version). After preparation, 5 μl of sample dilutions or standard/blanks are transferred to the optical 384-well plate (assay plate) and the 10 μl reaction protocol is being followed. For measurement, the QuantStudio 12K Flex system is used. Raw data is extracted and IL-2 concentrations are calculated with the Thermo Fisher online app (apps.thermofisher.com/apps/proquantum).
ELISA is done following the manufacturer's manual (Thermo Fisher Scientific, #88-7025-88). Additional information: For the ELISA Nunc MaxiSorp 96 well plates are used. Frozen supernatant is thawed and centrifuged for 5 minutes at 1000×g, both steps at 4° C. […]

[1] = IL2 after 24 hours, 20 μM reference compound A1 = 100%

Compound	Emax [1]	EC50	Emax IL2 (% activation) [1]
CC(C)(c1nnc(-c2ccc3c(c2)N(Cc2ccc(-c4ccc(F)cn4)cc2)C(=O)[C@@H](N)CS3(=O)=O)o1)S(C)(=O)=O [Example 9, (3R)-3-amino-5-[[4-(5-fluoro-2-pyridyl)phenyl]methyl]-7-[5-(1-methyl-1-methylsulfonyl-ethyl)-1,3,4-oxadiazol-2-yl]-1,1-dioxo-2,3-dihydro-1λ6,5-benzothiazepin-4-one]	65%	5270 nM	
CC(C)(c1nc(-c2cc3c(cc2F)S(=O)(=O)C[C@H](N)C(=O)N3Cc2ccc(Cl)cc2)no1)S(C)(=O)=O [Example 43, (3R)-3-amino-5-[(4-chlorophenyl)methyl]-8-fluoro-7-[5-(1-methyl-1-methylsulfonyl-ethyl)-1,2,4-oxadiazol-3-yl]-1,1-dioxo-2,3-dihydro-1λ6,5-benzothiazepin-4-one]	163%	131 nM	
CC1(c2nnc(-c3ccc4c(c3)N(Cc3ccc(Oc5ccccc5)cc3)C(=O)[C@@H](N)CS4(=O)=O)o2)CCCS1(=O)=O (stereo partly drawn) [Example 58, (3R)-3-amino-7-[5-(2-methyl-1,1-dioxo-thiolan-2-yl)-1,3,4-oxadiazol-2-yl]-1,1-dioxo-5-[(4-phenoxyphenyl)methyl]-2,3-dihydro-1λ6,5-benzothiazepin-4-one]	136%	2930 nM	
COc1ccc(-c2ccc(CN3C(=O)[C@@H](N)CS(=O)(=O)c4ccc(-c5nnc(C(C)(C)S(C)(=O)=O)o5)cc43)cc2)c(C)c1 [Example 49, (3R)-3-amino-5-[[4-(4-methoxy-2-methyl-phenyl)phenyl]methyl]-7-[5-(1-methyl-1-methylsulfonyl-ethyl)-1,3,4-oxadiazol-2-yl]-1,1-dioxo-2,3-dihydro-1λ6,5-benzothiazepin-4-one]	34%	> 10000 nM	
CC(C)(c1nnc(-c2ccc3c(c2)N(Cc2ccc(Oc4cccc(Cl)c4)cc2)C(=O)[C@@H](N)CS3(=O)=O)o1)S(C)(=O)=O [Example 34, (3R)-3-amino-5-[[4-(3-chlorophenoxy)phenyl]methyl]-7-[5-(1-methyl-1-methylsulfonyl-ethyl)-1,3,4-oxadiazol-2-yl]-1,1-dioxo-2,3-dihydro-1λ6,5-benzothiazepin-4-one]	89%	1000 nM	
CC(C)(c1nnc(-c2ccc3c(c2)N(Cc2ccc(Oc4ccccc4)cc2)C(=O)[C@@H](N)CS3(=O)=O)o1)S(C)(=O)=O [Example 5, (3R)-3-amino-7-[5-(1-methyl-1-methylsulfonyl-ethyl)-1,3,4-oxadiazol-2-yl]-1,1-dioxo-5-[(4-phenoxyphenyl)methyl]-2,3-dihydro-1λ6,5-benzothiazepin-4-one]	118%	2110 nM	
CC(C)(c1nnc(-c2ccc3c(c2)N(Cc2ccc(OCc4ccccc4)cc2)C(=O)[C@@H](N)CS3(=O)=O)o1)S(C)(=O)=O [Example 11, (3R)-3-amino-5-[(4-benzyloxyphenyl)methyl]-7-[5-(1-methyl-1-methylsulfonyl-ethyl)-1,3,4-oxadiazol-2-yl]-1,1-dioxo-2,3-dihydro-1λ6,5-benzothiazepin-4-one]	140%	932 nM	
CC(C)(c1nnc(-c2ccc3c(c2)N(Cc2ccc(OC4CCCC4)cc2)C(=O)[C@@H](N)CS3(=O)=O)o1)S(C)(=O)=O [Example 16, (3R)-3-amino-5-[[4-(cyclopentoxy)phenyl]methyl]-7-[5-(1-methyl-1-methylsulfonyl-ethyl)-1,3,4-oxadiazol-2-yl]-1,1-dioxo-2,3-dihydro-1λ6,5-benzothiazepin-4-one]	61%	6220 nM	
CC(C)(c1nnc(-c2ccc3c(c2)N(Cc2ccc(OCCC(F)(F)F)cc2)C(=O)[C@@H](N)CS3(=O)=O)o1)S(C)(=O)=O [Example 23, (3R)-3-amino-7-[5-(1-methyl-1-methylsulfonyl-ethyl)-1,3,4-oxadiazol-2-yl]-1,1-dioxo-5-[[4-(3,3,3-trifluoropropoxy)phenyl]methyl]-2,3-dihydro-1λ6,5-benzothiazepin-4-one]	62%	7330 nM	
CC(C)(c1nc(-c2cc3c(cc2F)[S+]([O-])C[C@H](N)C(=O)N3Cc2ccc(Oc3ccccc3)cc2)no1)S(C)(=O)=O (stereo partly drawn) [Example 51, (3R)-3-amino-8-fluoro-7-[5-(1-methyl-1-methylsulfonyl-ethyl)-1,2,4-oxadiazol-3-yl]-1-oxo-5-[(4-phenoxyphenyl)methyl]-2,3-dihydro-1λ4,5-benzothiazepin-4-one]		897 nM	101%
CC(C)(c1nnc(-c2cc3c(cc2F)S(=O)(=O)C[C@H](N)C(=O)N3Cc2ccc(Oc3ccccc3)cc2)o1)S(C)(=O)=O [Example 27, (3R)-3-amino-8-fluoro-7-[5-(1-methyl-1-methylsulfonyl-ethyl)-1,3,4-oxadiazol-2-yl]-1,1-dioxo-5-[(4-phenoxyphenyl)methyl]-2,3-dihydro-1λ6,5-benzothiazepin-4-one]	215%	2600 nM	
CC(C)(c1nc(-c2cc3c(cc2F)S(=O)(=O)C[C@H](N)C(=O)N3Cc2ccc(Oc3ccccc3)nc2)no1)S(C)(=O)=O [Example 48, (3R)-3-amino-8-fluoro-7-[5-(1-methyl-1l-methylsulfonyl-ethyl)-1,2,4-oxadiazol-3-yl]-1,1-dioxo-5-[(6-phenoxy-3-pyridyl)methyl]-2,3-dihydro-1 λ6,5-benzothiazepin-4-one]	165%	1050 nM	
CC(C)(c1nc(-c2cc3c(cc2F)S(=O)(=O)C[C@H](N)C(=O)N3Cc2ccc(-c3noc(C4CC4)n3)cc2)no1)S(C)(=O)=O [Example 45, (3R)-3-amino-5-[[4-(5-cyclopropyl-1,2,4-oxadiazol-3-yl)phenyl]methyl]-8-fluoro-7-[5-(1-methyl-1-methylsulfonyl-ethyl)-1,2,4-oxadiazol-3-yl]-1,1-dioxo-2,3-dihydro-1λ6,5-benzothiazepin-4-one]	190%	195 nM	
CC(C)(c1nnc(-c2ccc3c(c2)N(Cc2ccc(OC(F)(F)C(F)F)cc2)C(=O)[C@@H](N)CS3(=O)=O)o1)S(C)(=O)=O [Example 3, (3R)-3-amino-7-[5-(1-methyl-1-methylsulfonyl-ethyl)-1,3,4-oxadiazol-2-yl]-1,1-dioxo-5-[[4-(1,1,2,2-tetrafluoroethoxy)phenyl]methyl]-2,3-dihydro-126,5-benzothiazepin-4-one]	102%	1320 nM	
COc1ccc(-c2ccc(CN3C(=O)[C@@H](N)CS(=O)(=O)c4cc(F)c(-c5nnc(C(C)(C)S(C)(=O)=O)o5)cc43)cc2)cc1 [Example 29, (3R)-3-amino-8-fluoro-5-[[4-(4-methoxyphenyl)phenyl]methyl]-7-[5-(1-methyl-1-methylsulfonyl-ethyl)-1,3,4-oxadiazol-2-yl]-1,1-dioxo-2,3-dihydro-1λ6,5-benzothiazepin-4-one]	284%	431 nM	
COc1ccc(-c2ccc(CN3C(=O)[C@@H](N)CS(=O)(=O)c4ccc(-c5nnc(C(C)(C)S(C)(=O)=O)o5)cc43)cc2)cc1 [Example 21, (3R)-3-amino-5-[[4-(4-methoxyphenyl)phenyl]methyl]-7-[5-(1-methyl-1-methylsulfonyl-ethyl)-1,3,4-oxadiazol-2-yl]-1,1-dioxo-2,3-dihydro-1λ6,5-benzothiazepin-4-one]	89%	1240 nM	
CS(=O)(=O)C1(c2nnc(-c3ccc4c(c3)N(Cc3ccc(Oc5ccccc5)cc3)C(=O)[C@@H](N)CS4(=O)=O)o2)CC1 [Example 66, (3R)-3-amino-7-[5-(1-methylsulfonylcyclopropyl)-1,3,4-oxadiazol-2-yl]-1,1-dioxo-5-[(4-phenoxyphenyl)methyl]-2,3-dihydro-1λ6,5-benzothiazepin-4-one]	52%	9170 nM	
